The values below come from PMC2896951, “The proline-rich peptide Bac7(1-35) reduces mortality from Salmonella typhimurium in a mouse model of infection” (BMC Microbiology, 2010).

Where a SMILES comes first, the peptide text is derived from it. Where no end group is shown, it is not given here.

For series [1], the system named is S. enterica ATCC 14028 in liver and spleen of CBA/Ca mice. Description: Viable colony counts in murine liver and spleen homogenates. It counts as in vivo, mouse. Particulars: 30 mg/kg i.p., 3 days post-inoculation. On the procedure: Three days after bacterial infection, a group of 3 untreated and 3 peptide-treated mice were killed by cervical dislocation, and liver and spleen were removed. The organs were weighed, homogenized separately and dissolved in PBS. Suitable dilutions of 50 μL of the homogenate in PBS were plated in duplicate on Mueller-Hinton agar (Difco). The plates were then incubated at 37°C overnight to allow colony counts. Results are expressed as number of CFU/g of organ. This assay was repeated two fold.

The next series is described as follows: in vitro. How it is done:
Bac7(1-35) peptide (50 μg) was incubated in 250 μL of PBS containing 25% (v/v) of murine serum or plasma at 37°C. At different time intervals (0, 1, 2, 4, 8 and 24 h), aliquots of 25 μL (corresponding to 5 μg of peptide) were added to 65 μL of cold 0.5% (v/v) TFA in H2O, kept on ice for 5 min and than centrifuged at 10.000 × g for 5 min. The LC-MS analysis of supernatants were carried out as described, using a standard curve to calculate the peptide concentration.

For series [2], the system named is Salmonella enterica serovar Typhimurium ATCC 14028. Description: Killing kinetics assay (bactericidal activity) in the presence of biological fluids. In kind it is cell-based. The conditions noted are these: for reduction of the number of CFU: 10 μM peptide, 1 h incubation, 37°C. On the procedure: Murine plasma obtained using 2% (v/v) Na-citrate as an anticoagulant, and serum were prepared and stored at -20°C until use. The bactericidal activity of Bac7(1-35) against Salmonella enterica serovar Typhimurium ATCC 14028 was determined by a killing kinetics assay. Mid-logarithmic phase S. enterica cultures were diluted in murine serum or plasma (66% v/v final concentration) or BSA (40 mg/mL) (Sigma) to give approximately 1 × 10^6 cells/ml, and incubated with 10 μM Bac7(1-35) in a shaking water bath at 37°C for different times. Samples were withdrawn, diluted and plated to allow colony counts.

In series [3] the test system is S. typhimurium ATCC 14028 infection in CBA/Ca mice. Description: Mouse model of typhoid fever, survival. In kind it is in vivo. How it is done: Inocula containing 10^2 CFU/mouse of S. enterica ATCC 14028, expected to result in 90-100% mortality in 4-6 days for Balb/c and 10-18 days for CBA/Ca, were prepared by diluting log-phase bacterial cultures in sterile PBS. Ten mice were infected intraperitoneally and monitored for survival over a 60-day period after infection. Test peptide (30 mg/kg) was injected via i.p. after bacterial challenge. The choice of dose was based on preliminary data obtained with lower doses (data not shown) and on results reported in the literature for structurally similar peptides. Control mice were given 0.2 ml of PBS. […] The analysis of survival curves was conducted using the Kaplan-Meyer method and successive statistical evaluation by the Logrank test. Significance of percentage differences among groups was assessed by using the Fisher exact test. Values of p < 0.05 were considered statistically significant.

In the next series the test system is Balb/c and CBA/Ca mice. Description: In vivo toxicity after single i.p. injection. Further details: species or system mouse. On the procedure:
The in vivo toxicity of Bac7(1-35) was investigated by injecting mice via i.p. with increasing amounts of the peptide dissolved in apyrogen PBS (0.2 ml per mouse). The controls received the vehicle alone. Animal behavior and survival were monitored over a 14-day period.

The conditions of series [4]: 37°C, several days of incubation.
Procedure: (§1) At different times, aliquots of samples were diluted 1:5 in sample buffer (12% SDS, 6% dithiothreitol, 40% glycerol, 0.05% bromophenol blue, 150 mM Tris-HCl, pH 7), incubated for 15 min at 60°C and analyzed on a 16% Tricine/SDS gel. Proteins were then blotted onto nitrocellulose membrane (Whatman), and incubated overnight with shaking at 4°C in 40 mM Tris-HCl, pH 7.5, 5% non-fat milk, 0.05% Tween 20, 200 mM NaCl (blocking solution). Samples were incubated for 90 min with 1:1000 rabbit anti-Bac7(1-35) IgG, diluted in blocking solution, followed by a HRP-conjugated anti-rabbit IgG (Sigma-Aldrich). The ECL detection system (GE Healthcare) was used to develop the Western blots.
The conditions of series [5]: 37°C, Western blot. In general terms: A western blot detects proteins with antibodies after separation by electrophoresis.
Procedure: as §1
The subject of series [6] is E. coli infection; S. typhimurium disease. Further details: method as in 2 sources, one per row (each row's own in cited_ref): ref 8 = [8]; PMID 12222961; doi:10.1007/s00018-002-8493-8; Otvos L The short proline-rich antibacterial peptide family Cell Mol Life Sci 2002 59 7 1138 1150 10.1007/s00018-002-8493-8 12222961 PMC11337521 ||| ref 22 = [22]; PMID 2934362; doi:10.1093/jac/16.5.615; Easmon CS Blowers A Ciprofloxacin treatment of systemic salmonella infection in sensitive and resistance mice J Antimicrob Chemother 1985 16 5 615 619 10.1093/jac/16.5.615 2934362. The conditions noted are these: Balb/c mice; cited from earlier work. How it is done: As a first step to evaluate the therapeutic potential of Bac7(1-35), its in vivo toxicity was determined in Balb/c and CBA/Ca mice after injection via i.p. of increasing single peptide doses. […] For ... || The potential of Bac7(1-35) to protect mice from a bacterial challenge was tested by a mouse model of Salmonella infection. Infected mice develop a systemic disease characterized by rapid bacterial multiplication in the liver and spleen that resembles typhoid fever caused by Salmonella serovar Typhi in humans.

Series [7] in a line: Antimicrobial activity of the labelled peptide (data not shown). In kind it is cell-based.
Another series deals with healthy animals / mice. The conditions noted are these: i.v.; cited from earlier work.

As to `CC[C@H](C)[C@H](NC(=O)[C@H](CCCNC(=N)N)NC(=O)[C@@H](N)CCCNC(=N)N)C(=O)N[C@@H](CCCNC(=N)N)C(=O)N1CCC[C@H]1C(=O)N[C@@H](CCCNC(=N)N)C(=O)N1CCC[C@H]1C(=O)N1CCC[C@H]1C(=O)N[C@@H](CCCNC(=N)N)C(=O)N[C@@H](CC(C)C)C(=O)N1CCC[C@H]1C(=O)N[C@@H](CCCNC(=N)N)C(=O)N1CCC[C@H]1C(=O)N[C@@H](CCCNC(=N)N)C(=O)N1CCC[C@H]1C(=O)N[C@@H](CCCNC(=N)N)C(=O)N1CCC[C@H]1C(=O)N[C@@H](CC(C)C)C(=O)N1CCC[C@H]1C(=O)N[C@@H](Cc1ccccc1)C(=O)N1CCC[C@H]1C(=O)N[C@@H](CCCNC(=N)N)C(=O)N1CCC[C@H]1C(=O)NCC(=O)N1CCC[C@H]1C(=O)N[C@@H](CCCNC(=N)N)C(=O)N1CCC[C@H]1C(=O)N[C@H](C(=O)N1CCC[C@H]1C(=O)N[C@@H](CCCNC(=N)N)C(=O)N1CCC[C@H]1C(=O)N[C@@H](CC(C)C)C(=O)N1CCC[C@H]1C(=O)N[C@@H](Cc1ccccc1)C(=O)N1CCC[C@H]1C(=O)O)[C@@H](C)CC` [Bac7(1-35)] (H-RRIRPRPPRLPRPRPRPLPFPRPGPRPIPRPLPFP-OH; N-terminus and C-terminus assumed), the “fraction of animals with bacteria undetectable in both spleen and liver” value in series [1] is recorded as 1/3. For the same molecule, in series [1] (CBA/Ca mice), the “number of viable bacterial cells in liver and spleen homogenates” value was “decreased significantly”. Further, the “degradation process in plasma relative to serum” value in the series “in vitro” (25% (v/v) murine plasma in PBS, 37°C, LC-MS) is listed as “slower in plasma than in serum”. Also, in the series “in vitro” (25% (v/v) murine serum in PBS, 37°C, 8 h incubation, LC-MS), the “state of the peptide after 8 h” value is recorded as “almost completely degraded”. The molecule further showed a metabolised at 1 h, 200 μg/mL in the series “in vitro” (mouse, 25% (v/v) murine serum in PBS) of 10%. Moreover, the “reduction of the number of CFU” value in [2] (in the absence of serum/plasma) is listed as 2.5 log; in series [2] (with 66% murine serum or plasma, approx. 1 × 10^6 cells/ml, three independent determinations in triplicate), 0.5-1 log. For the same molecule, the “bactericidal activity upon addition of BSA” value in series [2] (40 mg/mL BSA, data not shown) is listed as “did not change”. In addition, in [2] (without the presence of plasma/serum, 1 h), the “peptide concentration giving a CFU reduction comparable to 10 μM in serum/plasma” value came out at 1 µM. The mean survival time in series [3] (30 mg/kg i.p. after i.p. challenge with 1 × 10^2 CFU/mouse, 60 days monitoring, control 10 days, p = 0.01) turned out to be 24.5 days. Moreover, the “infected mice completely cured (survival)” value in series [3] (30 mg/kg i.p., 60 days, untreated 0%, p = 0.04) stood at 36%. Further, in the series with Balb/c and CBA/Ca mice (highest dose), the “dose at which mice died” value is recorded as 150 mg/kg. Also, the “dose with no apparent toxic effect” value in the series on Balb/c and CBA/Ca mice (monitored over 14 days) is listed as “up to 75 mg/kg”. Moreover, the “peptide degradation in PBS alone” value in [4] is given as “no peptide degradation was observed”. Also, the “degradation in plasma relative to serum (immunodetection)” value in series [5] (25% (v/v) murine plasma in PBS, up to 24 h) is “slower”. Also, the “band corresponding to intact peptide (immunodetection)” value in series [5] (25% (v/v) murine serum in PBS, 24 h incubation, 120 μg in 200 μL) is listed as “disappeared”.
On to `O=C(O)c1cn(C2CC2)c2cc(N3CCNCC3)c(F)cc2c1=O` [ciprofloxacin], for which the “prevention of fatal S. typhimurium disease” value in series [6] was “failed to prevent”.
On to “Bac7(1-35)-Alexa680: derivative of Bac7(1-35) fluorescently labelled with the dye Alexa680 via an added C-terminal cysteine (RRIRPRPPRLPRPRPRPLPFPRPGPRPIPRPLPFP-{C(Alexa Fluor 680 C2-maleimide)}; UniProt P19661 131-165, looked up, fragment)”, for which the “antimicrobial activity relative to the unlabelled peptide” value in series [7] is given as “comparable”.
Consider “Drosocin: insect proline-rich AMP (GKPRPYSPRPTSHPRPIRV; ends and bridges not checked; UniProt P36193 22-40, looked up)”, for which, in the series with healthy animals / mice, the “dose at which completely devoid of toxicity” value is listed as 100 mg/kg.
